Data published in patent US20110207796A1, “ALPHA-SYNUCLEIN KINASE” (Elan Pharma International Limited, priority 2008, published 2011).
Where two headings read alike, the source gives them in different places.

How the values were obtained:
[1] = tested on: brain p-synuclein (p-Ser129); test: in vivo inhibition of phosphorylation of synuclein in wild-type FVB mice, brain western blot; design: species or system mouse; conditions: IV tail vein 50 mg/kg
Experimental: The examples above describe the identification and in vitro validation of polo-like kinase 2 (PLK2) as an α-synuclein Ser 129-specific kinase. This example describes the ability of a kinase inhibitor (BI 2561) to decrease phosphorylation of α-synuclein in vivo. Wild-type FVB mice were treated by IV tail vein with 50 mg/kg of the PLK-specific inhibitor. Total α-synuclein and p-synuclein levels in brain (p-Ser129) were analyzed by western blot.

PLK4 = target: T1, PLK4 (Homo sapiens, UniProt O00444); test: HEK-293 cells overexpressing synuclein and PLK4, inhibition of synuclein phosphorylation; format: cell-based; conditions: HEK-293, Table 22
T1 sequence (O00444 1-970): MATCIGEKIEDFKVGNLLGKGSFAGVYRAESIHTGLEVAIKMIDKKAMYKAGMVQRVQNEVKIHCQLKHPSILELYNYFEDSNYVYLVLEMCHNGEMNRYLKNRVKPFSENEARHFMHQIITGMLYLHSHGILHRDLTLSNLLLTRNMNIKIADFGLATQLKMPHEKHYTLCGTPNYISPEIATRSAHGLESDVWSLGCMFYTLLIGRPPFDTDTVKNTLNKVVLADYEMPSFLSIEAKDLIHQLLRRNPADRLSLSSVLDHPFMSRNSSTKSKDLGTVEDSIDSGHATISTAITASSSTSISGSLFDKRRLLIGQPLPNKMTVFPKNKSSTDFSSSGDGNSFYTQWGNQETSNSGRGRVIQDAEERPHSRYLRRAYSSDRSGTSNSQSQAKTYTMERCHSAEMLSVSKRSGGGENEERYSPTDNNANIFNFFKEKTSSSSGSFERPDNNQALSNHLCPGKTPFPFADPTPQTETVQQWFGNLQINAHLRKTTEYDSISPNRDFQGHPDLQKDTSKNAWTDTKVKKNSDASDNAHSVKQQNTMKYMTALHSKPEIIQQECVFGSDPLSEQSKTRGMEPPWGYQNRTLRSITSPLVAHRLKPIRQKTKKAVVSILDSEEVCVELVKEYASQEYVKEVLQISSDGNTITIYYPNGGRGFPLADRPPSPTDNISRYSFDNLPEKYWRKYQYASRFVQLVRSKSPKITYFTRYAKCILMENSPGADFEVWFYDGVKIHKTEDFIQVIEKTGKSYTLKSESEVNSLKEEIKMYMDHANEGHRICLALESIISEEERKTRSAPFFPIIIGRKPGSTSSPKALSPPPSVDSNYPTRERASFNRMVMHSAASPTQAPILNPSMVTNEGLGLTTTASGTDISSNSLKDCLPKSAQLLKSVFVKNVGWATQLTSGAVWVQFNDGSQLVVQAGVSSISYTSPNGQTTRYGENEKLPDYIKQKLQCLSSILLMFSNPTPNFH
Experimental: (§1) All vectors had the sequence coding for the protein of interest. Transfection was accomplished using Lipofectamine 2000 (Invitrogen, Carlsbad, Calif.) with 0.08 μg vector. Cells were washed and harvested 48 hours post-transfection. A Micro BCA (Pierce) total protein assay and total synuclein and phospho-synuclein ELISAs were performed on each plate of treated cells.

[2] = tested on: synuclein phosphorylation by endogenous kinase; test: kinase inhibitor treatment of rat ventral mesencephalon (RVM) cultures transduced with E46K-synuclein; format: cell-based
Experimental: (§2) Rat Ventral Mesencephalon (RVM) cultures were prepared from E15 Wistar rats. The RVM cultures were cultured for 2 days and transduced with 0.75 MOI E46K-Synuclein lentivirus alone, or 0.75 MOI E46K-Synuclein lentivirus plus 0.75 MOI ca-PLK2 lentivirus. […] Transduced cultures were maintained in neuronal media with B27/1% FBS and 37° C./5% CO2 until treated with inhibitors. On DIV 17 (which corresponds to 15 days after viral transduction of the cultures) cells were treated with inhibitors for two hours. Cells were then harvested as detailed above in neuronal media with B27/1% FBS. A Micro BCA (Pierce) total protein assay, and total synuclein and phospho-synuclein ELISAs were performed on each plate of treated cells using standard methods.

PLK3 = target: T2, PLK3 (Homo sapiens, UniProt Q9H4B4); test: HEK-293 cells overexpressing synuclein and PLK3, inhibition of synuclein phosphorylation; format: cell-based
T2 construct: expressed in transfected cells; host or cells: HEK-293
T2 sequence (Q9H4B4 whole entry): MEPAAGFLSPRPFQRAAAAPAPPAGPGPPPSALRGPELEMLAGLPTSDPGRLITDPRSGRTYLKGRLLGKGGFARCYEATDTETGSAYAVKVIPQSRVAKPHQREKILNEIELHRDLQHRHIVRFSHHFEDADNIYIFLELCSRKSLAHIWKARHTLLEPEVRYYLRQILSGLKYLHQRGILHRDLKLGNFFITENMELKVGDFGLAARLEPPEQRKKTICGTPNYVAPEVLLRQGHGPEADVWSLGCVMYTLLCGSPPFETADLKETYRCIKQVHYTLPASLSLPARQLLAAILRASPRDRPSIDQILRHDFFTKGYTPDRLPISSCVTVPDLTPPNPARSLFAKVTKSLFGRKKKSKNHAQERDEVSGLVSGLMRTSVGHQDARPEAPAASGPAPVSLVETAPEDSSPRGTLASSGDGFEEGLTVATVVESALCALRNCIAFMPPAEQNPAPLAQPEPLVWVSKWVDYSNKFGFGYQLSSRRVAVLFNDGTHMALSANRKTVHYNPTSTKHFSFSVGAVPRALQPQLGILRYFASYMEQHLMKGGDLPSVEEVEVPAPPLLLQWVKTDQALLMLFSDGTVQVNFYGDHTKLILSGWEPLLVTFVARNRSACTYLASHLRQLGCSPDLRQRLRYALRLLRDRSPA
Experimental: as §1

[3] = tested on: synuclein phosphorylation (serine-129); test: inhibition of synuclein phosphorylation across the cellular paradigms (primary neuronal cultures and 293 cells); format: cell-based, mouse, rat and human; conditions: for EC50: Homo sapiens
PLK1 = target: T3, PLK1 (Homo sapiens, UniProt P53350); test: HEK-293 cells overexpressing synuclein and PLK1, inhibition of synuclein phosphorylation; format: cell-based
T3 construct: expressed in transfected cells; host or cells: HEK-293
T3 sequence (P53350 whole entry): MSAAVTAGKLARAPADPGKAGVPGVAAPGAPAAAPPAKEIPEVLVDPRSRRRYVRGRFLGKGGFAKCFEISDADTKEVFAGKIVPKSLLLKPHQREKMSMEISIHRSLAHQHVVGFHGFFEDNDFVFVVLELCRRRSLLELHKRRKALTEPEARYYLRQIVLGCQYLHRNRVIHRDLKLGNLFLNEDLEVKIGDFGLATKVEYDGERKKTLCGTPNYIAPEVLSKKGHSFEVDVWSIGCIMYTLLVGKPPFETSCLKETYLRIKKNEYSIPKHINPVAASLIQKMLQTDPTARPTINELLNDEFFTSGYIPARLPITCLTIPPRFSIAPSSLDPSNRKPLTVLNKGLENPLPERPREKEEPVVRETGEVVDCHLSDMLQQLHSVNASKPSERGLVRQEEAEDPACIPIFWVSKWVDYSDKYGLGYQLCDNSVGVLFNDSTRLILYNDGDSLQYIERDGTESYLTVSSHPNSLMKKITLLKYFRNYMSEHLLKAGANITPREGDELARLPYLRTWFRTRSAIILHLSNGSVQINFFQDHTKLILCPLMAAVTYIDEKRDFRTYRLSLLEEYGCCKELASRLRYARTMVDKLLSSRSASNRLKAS
Experimental: as §1

[4] = tested on: synuclein phosphorylation by endogenous kinase; test: kinase inhibitor treatment of mouse cortical cultures (MCC), total and phospho-synuclein ELISA; format: cell-based
Experimental: Mouse cortical cultures from fetal (i) Swiss-Webster, (ii) C56BL/6 WT and (iii) C56BL/6 E46K-Synuclein Trangenic mice were prepared and maintained in B27/DMEM/1% Penicillin-Streptomycin at 37° C./10% CO2 for three to fourteen days and then treated with kinase inhibitors.
Cultures were exposed to inhibitors for two hours in B27/DMEM/1% Penicillin-Streptomycin. Cells were immediately washed in 100 μL of PBS plus Mg^2+ and Ca^2+, and harvested in ice-cold CEB minus EGTA plus protease inhibitors, frozen on dry ice and stored at −80° C. until processed. A Micro BCA (Pierce) total protein assay, and total synuclein and phospho-synuclein ELISAs were performed on each plate of treated cells using standard methods.

PLK2 [5] = target: T4, PLK2 (Homo sapiens, UniProt Q9NYY3); test: in vitro biochemical assay of PLK2-driven synuclein phosphorylation
T4 sequence (Q9NYY3 whole entry): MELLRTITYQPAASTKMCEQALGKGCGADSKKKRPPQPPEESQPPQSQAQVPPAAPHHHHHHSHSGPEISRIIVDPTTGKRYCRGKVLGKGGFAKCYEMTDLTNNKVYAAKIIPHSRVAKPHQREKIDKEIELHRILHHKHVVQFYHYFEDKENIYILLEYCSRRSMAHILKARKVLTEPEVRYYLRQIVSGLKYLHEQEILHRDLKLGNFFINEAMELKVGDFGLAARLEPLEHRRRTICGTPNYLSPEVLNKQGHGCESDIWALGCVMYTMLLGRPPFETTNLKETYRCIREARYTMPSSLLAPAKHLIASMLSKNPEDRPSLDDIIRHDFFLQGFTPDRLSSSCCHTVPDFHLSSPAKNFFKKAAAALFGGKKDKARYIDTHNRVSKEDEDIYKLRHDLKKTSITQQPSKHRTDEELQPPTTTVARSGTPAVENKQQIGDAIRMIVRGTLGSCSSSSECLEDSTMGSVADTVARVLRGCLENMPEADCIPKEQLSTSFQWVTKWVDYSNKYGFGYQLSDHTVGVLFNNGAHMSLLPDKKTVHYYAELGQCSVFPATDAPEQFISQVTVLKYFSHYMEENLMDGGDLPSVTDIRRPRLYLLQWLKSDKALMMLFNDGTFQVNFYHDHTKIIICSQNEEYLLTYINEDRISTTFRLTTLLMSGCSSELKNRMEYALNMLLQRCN
Experimental: The reaction was incubated at 37° C. The activity was analyzed by autoradiography.
In vitro biochemical assays using each of the four PLK family members as the kinase to phosphorylate synuclein were conducted.

[6] = tested on: endogenous kinase (synuclein phosphorylation); test: HEK-293 cells overexpressing synuclein with empty vector, inhibition of synuclein phosphorylation; format: cell-based, human; conditions: for rank order of potency, Endogenous Kinase (293): Table 19
Experimental: as §1

PLK2 [7] = target: T4, PLK2; test: HEK-293 cells overexpressing synuclein and PLK2, inhibition of synuclein phosphorylation; format: cell-based; design: expressed in transfected cells; host or cells: HEK-293
Experimental: as §1

[8] = tested on: synuclein phosphorylation by constitutively active PLK2 (caPLK2); test: kinase inhibitor treatment of RVM cultures transduced with E46K-synuclein plus ca-PLK2; format: cell-based; conditions: rat ventral mesencephalon cultures
Experimental: as §2

[9] = E46K-Synuclein transgenic mouse cortical cultures
[10] = E46K-Synuclein transgenic mouse cortical cultures, read-out: EC50, E46K-Syn TG MCC
[11] = Swiss-Webster mouse cortical cultures
[12] = Swiss-Webster mouse cortical cultures, read-out: EC50, Swiss-Webster MCC
[13] = WT mouse cortical cultures, read-out: EC50, WT-MCC
[14] = PLK2-driven synuclein phosphorylation, read-out: IC50 in the in vitro biochemical assay
[15] = Homo sapiens, HEK293, 293 cells, Table 18, read-out: EC50, Endogenous Kinase (293)
[16] = 293 cells, Table 18, read-out: EC50, Over-Expressed PLK2 (293)
[17] = in vitro PLK2-driven synuclein phosphorylation, read-out: IC50, Straight Biochemical

Compound	EC50 [2] [µM]	rank order of potency, RVM E46K-Synuclein [2]	rank order of potency, E46K-Syn TG MCC [4, 9]	EC50 [4, 10] [µM]	rank order of potency, Swiss-Webster MCC [4, 11]	EC50 [4, 12] [µM]	rank order of potency, WT-MCC ([4]; WT mouse cortical cultures)	EC50 [4, 13] [µM]	IC50 (PLK2 [5]; [14]) [µM]	rank order of potency, Endogenous Kinase (293) ([6]; 293 cells)	EC50 [6, 15] [µM]	EC50 (PLK2 [7]; [16]) [µM]	EC50 [8] [µM]	rank order of potency, RVM E46K-Synuclein caPLK2 [8]	IC50 (PLK2 [5]; [17]) [µM]	also measured
CC[C@@H]1C(=O)N(C)c2cnc(Nc3ccc(C(=O)NC4CCN(C)CC4)cc3OC)nc2N1C1CCCC1 [BI 2561]																total α-synuclein levels in brain, western blot [1]: no effect; brain p-synuclein levels (p-Ser129), western blot ([1]; from 1 hour to 6 hours after treatment): clear decrease
CN(C)c1nc2c(Br)c(Br)c(Br)c(Br)c2[nH]1 [DMAT, 2-Dimethylamino-4,5,6,7-tetrabromo-1H-benzimidazole]	20	4	4	16.6	4	21.6	4	18.7	2.07	3	33	18.6	28.5	4		Rank Order of Potency Based on Percent Inhibition of Synuclein Phosphorylation, Synuclein + PLK4 (PLK4): 2; EC50 (PLK3; HEK-293, Example 16, Table 21, read-out: EC50 Based on the Percent Inhibition of Synuclein Phosphorylation, Synuclein + PLK3): 37.3 µM; Rank Order of Potency Based on Percent Inhibition of Synuclein Phosphorylation, Synuclein + PLK3 (PLK3; HEK-293, Table 22): 2; EC50 ([3]; HEK293, most of the cellular paradigms / cell types tested, read-out: EC50 inhibition of synuclein phosphorylation, cellular paradigms): 16 to 33 µM; EC50 (PLK1; HEK-293, Example 16, Table 21, read-out: EC50 Based on the Percent Inhibition of Synuclein Phosphorylation, Synuclein + PLK1): 27.2 µM; Rank Order of Potency Based on Percent Inhibition of Synuclein Phosphorylation, Synuclein + PLK1 (PLK1; HEK-293, Table 22): 3; rank order of potency, Straight Biochemical (PLK2 [5]; rank among 8 inhibitors): 2; Rank Order of Potency Based on Percent Inhibition of Synuclein Phosphorylation, Synuclein + Vector ([6]; HEK-293, Table 22): 2; EC50 ([6]; Homo sapiens, HEK293, HEK-293, Example 16, Table 21, read-out: EC50 Based on the Percent Inhibition of Synuclein Phosphorylation, Synuclein + Vector): 55.7 µM; EC50 ([6]; Homo sapiens, HEK293, HEK-293, synuclein only, read-out: EC50 synuclein phosphorylation, endogenous kinase): 56 µM; rank order of potency, Over-Expressed PLK2 (293) (PLK2 [7]; 293 cells, Table 19): 4; EC50 (PLK2 [7]; HEK-293, Example 16, Table 21, read-out: EC50 Based on the Percent Inhibition of Synuclein Phosphorylation, Synuclein + PLK2): 13.9 µM; Rank Order of Potency Based on Percent Inhibition of Synuclein Phosphorylation, Synuclein + PLK2 (PLK2 [7]; HEK-293, Table 22): 2
Scytonemin	> 100			> 100				> 100				> 100	> 100		> 100	inhibition of 50% of synuclein phosphorylation in cells ([3]; cell types tested): did not inhibit 50%; inhibition of 50% of synuclein phosphorylation in the in vitro assay (PLK2 [5]; PLK2-driven phosphorylation in vitro): did not inhibit 50%; EC50 ([6]; 293 cells, Table 18, read-out: EC50, Endogenous Kinase (293)): > 100 µM
COC(=O)[C@@]1(O)C[C@H]2O[C@]1(C)n1c3ccccc3c3c4c(c5c6ccccc6n2c5c31)C(=O)NC4 [Compound K252A]	3.2	3	2	3.1	2	2.9	2	3	> 10	2	3.6	7.1	3.5	2	> 10	EC50 ([3]; HEK293, read-out: EC50 inhibition of synuclein phosphorylation, cellular paradigms): 3 to 7 µM; rank order of potency, Straight Biochemical (PLK2 [5]): 4; rank order of potency, Over-Expressed PLK2 (293) (PLK2 [7]): 2
